Each structure is given as a SMILES string. Several values for one entry are separate records, joined by “and”; a condition that tells them apart may be missing. Equal values may be shown once. Toxic doses and inconclusive results are not listed.

The test system of this experiment is L1210 leukemia ip in BDF1 mice, survival T/C. Description: NCI In Vivo Anticancer Drug Screen. Data for tumor model L1210 Leukemia (intraperitoneal) in B6D2F1 (BDF1) mice. The note with it: endpoint: mean survival time, higher = longer survival. The method, boiled down: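 Transplantable tumor model; survival measured in treated vs vehicle control mice. Value = treated/control.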

[1] abbreviates: dose: 100.0 mg/kg/injection, schedule: Q04DX003 (ip), vehicle: Klucel (hydroxypropylcellulose) (HPC).
The mark [2] stands for this setting: dose: 100.0 mg/kg/injection, schedule: Q01DX009 (ip), vehicle: Klucel (hydroxypropylcellulose) (HPC).
Where [3] appears, read: dose: 100.0 mg/kg/injection, schedule: Q01DX001 (ip), vehicle: saline.
The mark [4] stands for this setting: dose: 50.0 mg/kg/injection, schedule: Q01DX009 (ip), vehicle: saline with Tween-80.

As for `CC1(C)N=C(N)N=C(N)N1c1cc(Cl)cc(CCCCc2ccc(S(=O)(=O)F)cc2)c1`, the T/C reads like this: (dose: 25.0 mg/kg/injection, schedule: Q04DX003 (ip), vehicle: Klucel (hydroxypropylcellulose) (HPC)) 109 % of control; (dose: 50.0 mg/kg/injection, schedule: Q04DX003 (ip), vehicle: Klucel (hydroxypropylcellulose) (HPC)) 112 % of control; under setting [1], 107 % of control and 118 % of control.
For `O=c1oc2ccc([N+](=O)[O-])cc2o1`, the T/C (dose: 75.0 mg/kg/injection, schedule: Q01DX001 (ip), vehicle: acetone) was 108 % of control.
With `CC/C(C)=C\CC/C(C)=C/COc1cccc([N+](=O)[O-])c1`, the T/C is 97 % of control (dose: 50.0 mg/kg/injection, schedule: Q01DX009 (ip), vehicle: carboxymethylcellulose (CMC)); 92 % of control (dose: 100.0 mg/kg/injection, schedule: Q01DX009 (ip), vehicle: carboxymethylcellulose (CMC)); 101 % of control (dose: 200.0 mg/kg/injection, schedule: Q01DX009 (ip), vehicle: carboxymethylcellulose (CMC)).
As to `Cc1cc(NC(=S)Nc2ccccc2)c(NC(=S)Nc2ccccc2)cc1C`, the T/C runs as follows: (dose: 12.5 mg/kg/injection, schedule: Q01DX005 (ip), vehicle: Klucel (hydroxypropylcellulose) (HPC)) 103 % of control; (dose: 25.0 mg/kg/injection, schedule: Q01DX005 (ip), vehicle: Klucel (hydroxypropylcellulose) (HPC)) 87 % of control; (dose: 25.0 mg/kg/injection, schedule: Q01DX009 (ip), vehicle: Klucel (hydroxypropylcellulose) (HPC)) 96 % of control; (dose: 50.0 mg/kg/injection, schedule: Q01DX005 (ip), vehicle: Klucel (hydroxypropylcellulose) (HPC)) 103 % of control; (dose: 50.0 mg/kg/injection, schedule: Q01DX009 (ip), vehicle: Klucel (hydroxypropylcellulose) (HPC)) 96 % of control; (dose: 100.0 mg/kg/injection, schedule: Q01DX005 (ip), vehicle: Klucel (hydroxypropylcellulose) (HPC)) 97 % of control and 101 % of control. Also, the T/C under setting [2] was 93 % of control; the T/C (dose: 150.0 mg/kg/injection, schedule: Q01DX009 (ip), vehicle: Klucel (hydroxypropylcellulose) (HPC)) is 97 % of control; the T/C (dose: 335.0 mg/kg/injection, schedule: Q01DX009 (ip), vehicle: Klucel (hydroxypropylcellulose) (HPC)) is 90 % of control; the T/C (dose: 400.0 mg/kg/injection, schedule: Q01DX005 (ip), vehicle: Klucel (hydroxypropylcellulose) (HPC)) is 101 % of control.
In the case of `CCCn1cnc2c(=S)nc[nH]c21`, the T/C (dose: 12.5 mg/kg/injection, schedule: Q01DX Z (ip), vehicle: carboxymethylcellulose (CMC)) is 108 % of control; the T/C (dose: 25.0 mg/kg/injection, schedule: Q01DX Z (ip), vehicle: carboxymethylcellulose (CMC)) is 102 % of control; the T/C (dose: 37.5 mg/kg/injection, schedule: Q04DX003 (ip), vehicle: Klucel (hydroxypropylcellulose) (HPC)) was 97 % of control; the T/C (dose: 50.0 mg/kg/injection, schedule: Q01DX Z (ip), vehicle: carboxymethylcellulose (CMC)) was 104 % of control; the T/C (dose: 75.0 mg/kg/injection, schedule: Q04DX003 (ip), vehicle: Klucel (hydroxypropylcellulose) (HPC)) was 103 % of control; the T/C (dose: 150.0 mg/kg/injection, schedule: Q04DX003 (ip), vehicle: Klucel (hydroxypropylcellulose) (HPC)) is 123 % of control. For the same compound, the T/C (dose: 300.0 mg/kg/injection, schedule: Q04DX003 (ip), vehicle: Klucel (hydroxypropylcellulose) (HPC)) was 151 % of control.
For the compound `CC(C)CCNNCCC(C)C`, the T/C was 108 % of control (dose: 75.0 mg/kg/injection, schedule: Q01DX001 (ip), vehicle: other) and 104 % of control (dose: 150.0 mg/kg/injection, schedule: Q01DX001 (ip), vehicle: other).
For the compound `O=C1c2ccccc2C(=O)C1(Br)C(Br)c1ccccc1` (centres undefined), the T/C by setting is: under setting [2], 102 % of control; under setting [1], 96 % of control; (dose: 200.0 mg/kg/injection, schedule: Q01DX009 (ip), vehicle: Klucel (hydroxypropylcellulose) (HPC)) 101 % of control; (dose: 200.0 mg/kg/injection, schedule: Q04DX003 (ip), vehicle: Klucel (hydroxypropylcellulose) (HPC)) 94 % of control; (dose: 400.0 mg/kg/injection, schedule: Q01DX009 (ip), vehicle: Klucel (hydroxypropylcellulose) (HPC)) 93 % of control; (dose: 400.0 mg/kg/injection, schedule: Q04DX003 (ip), vehicle: Klucel (hydroxypropylcellulose) (HPC)) 96 % of control.
Take `NC(=S)c1[nH]cnc1N`: the T/C (dose: 27.0 mg/kg/injection, schedule: Q01DX015 (ip), vehicle: saline) is 95 % of control; the T/C (dose: 40.0 mg/kg/injection, schedule: Q01DX015 (ip), vehicle: saline) was 93 % of control; the T/C (dose: 60.0 mg/kg/injection, schedule: Q01DX015 (ip), vehicle: saline) was 101 % of control; the T/C (dose: 100.0 mg/kg/injection, schedule: Q01DX001 (ip), vehicle: other) is 98 % of control; the T/C under setting [3] is 110 % of control; the T/C (dose: 200.0 mg/kg/injection, schedule: Q01DX001 (ip), vehicle: other) is 95 % of control. Also, where the note is “dose: 400.0 mg/kg/injection, schedule: Q01DX001 (ip), vehicle: other”, the T/C is 103 % of control.
With `O=C(CCCC(=O)N/N=C/C=C/c1ccccc1)N/N=C/C=C\c1ccccc1`, the T/C reads like this: (dose: 50.0 mg/kg/injection, schedule: Q01DX001 (ip), vehicle: saline) 87 % of control; under setting [3], 110 % of control; (dose: 200.0 mg/kg/injection, schedule: Q01DX001 (ip), vehicle: saline) 93 % of control; (dose: 400.0 mg/kg/injection, schedule: Q01DX001 (ip), vehicle: saline) 97 % of control.
Consider `S=C(S)NC1c2ccccc2-c2ccccc21` (tested in a mixture with another compound), for which the T/C runs as follows: (dose: 100.0 mg/kg/injection, schedule: Q01DX001 (ip), vehicle: carboxymethylcellulose (CMC)) 94 % of control; (dose: 200.0 mg/kg/injection, schedule: Q01DX001 (ip), vehicle: carboxymethylcellulose (CMC)) 90 % of control; (dose: 400.0 mg/kg/injection, schedule: Q01DX001 (ip), vehicle: carboxymethylcellulose (CMC)) 96 % of control.
Regarding `CCC(CCl)NC(CC(C)C)CC(C)C` (centres undefined), the T/C is, setting by setting: (dose: 75.0 mg/kg/injection, schedule: Q01DX001 (ip), vehicle: saline) 93 % of control and 98 % of control; (dose: 150.0 mg/kg/injection, schedule: Q01DX001 (ip), vehicle: saline) 96 % of control and 107 % of control.
Take `N#CC(C#N)C(=O)c1ccccc1`: the T/C reads like this: (dose: 12.5 mg/kg/injection, schedule: Q01DX009 (ip), vehicle: saline with Tween-80) 100 % of control; (dose: 25.0 mg/kg/injection, schedule: Q01DX009 (ip), vehicle: saline with Tween-80) 100 % of control; under setting [4], 96 % of control; (dose: 100.0 mg/kg/injection, schedule: Q04DX003 (ip), vehicle: saline with Tween-80) 95 % of control; (dose: 200.0 mg/kg/injection, schedule: Q04DX003 (ip), vehicle: saline with Tween-80) 95 % of control; (dose: 400.0 mg/kg/injection, schedule: Q04DX003 (ip), vehicle: saline with Tween-80) 89 % of control.
Take `O=c1cccc[nH]1`: the T/C by setting is: (dose: 25.0 mg/kg/injection, schedule: Q01DX009 (ip), vehicle: saline) 100 % of control; (dose: 45.0 mg/kg/injection, schedule: Q01DX009 (ip), vehicle: saline) 91 % of control; (dose: 50.0 mg/kg/injection, schedule: Q01DX009 (ip), vehicle: saline) 106 % of control and 93 % of control; (dose: 65.0 mg/kg/injection, schedule: Q01DX009 (ip), vehicle: saline) 104 % of control; (dose: 100.0 mg/kg/injection, schedule: Q01DX009 (ip), vehicle: saline) 96 % of control and 110 % of control and 91 % of control; (dose: 100.0 mg/kg/injection, schedule: Q04DX002 (ip), vehicle: saline) 95 % of control. For the same compound, the T/C (dose: 100.0 mg/kg/injection, schedule: Q04DX003 (ip), vehicle: saline) was 91 % of control; the T/C (dose: 150.0 mg/kg/injection, schedule: Q01DX009 (ip), vehicle: saline) is 102 % of control; the T/C (dose: 200.0 mg/kg/injection, schedule: Q01DX009 (ip), vehicle: saline) is 109 % of control and 110 % of control; the T/C (dose: 200.0 mg/kg/injection, schedule: Q04DX002 (ip), vehicle: saline) was 100 % of control; the T/C (dose: 200.0 mg/kg/injection, schedule: Q04DX003 (ip), vehicle: saline) is 91 % of control; the T/C (dose: 400.0 mg/kg/injection, schedule: Q04DX003 (ip), vehicle: saline) was 92 % of control.
As for `O=C(/C=C/c1ccc2c(c1)OCO2)c1ccc(Cl)cc1`, the T/C reads like this: under setting [4], 97 % of control; (dose: 100.0 mg/kg/injection, schedule: Q01DX009 (ip), vehicle: saline with Tween-80) 95 % of control; (dose: 200.0 mg/kg/injection, schedule: Q01DX009 (ip), vehicle: saline with Tween-80) 96 % of control.

These data come from PubChem BioAssay AID248 (DTP/NCI, 2004).
